Values of other authors as cited in patent US6492330B1, “Antiangiogenic drugs” (National Institute of Immunology, priority 1996, dated 2002).

Assays:
[1] = test system: human umbelical vein endothelial cells (HUVEC); settings: 10^−9M octreotide; cited from earlier work
[2] = test system: aortic rings in fibrin; settings: 10^−8M octreotide; cited from earlier work
[3] = test system: vascular cells from explants of rat aorta; settings: 10^−8M octreotide; cited from earlier work
[4] = target: VIP-receptor complex; settings: n=6; K-A is the dissociation constant of VIP-receptor complex; cited from earlier work

Question: For `C[C@@H](O)[C@@H]1NC(=O)[C@H](CCCCN)NC(=O)[C@@H](Cc2c[nH]c3ccccc23)NC(=O)[C@H](Cc2ccccc2)NC(=O)[C@@H](NC(=O)[C@H](N)Cc2ccccc2)CSSC[C@@H](C(=O)N[C@H](CO)[C@@H](C)O)NC1=O` [octreotide], which “reduction of mean uptake of 3H-thymidine compared with controls” value [1] is on record?
Answer: The value was 37%.

Question: And the “reduction of sprouting compared with controls” value [2]?
Answer: Its value is 33.2%.

Question: What about the “inhibition of proliferation compared with controls” value [3] of the same compound?
Answer: The value was 32.6%.

Question: For vasoactive intestinal polypeptide [VIP], which “pKa value for VIP-receptor complex” value [4] is on record?
Answer: The value was 8.10+/−0.10.
